Measurements from patent US20260116874A1, “HETEROAROMATIC INDOLESULFONAMIDES” (SEED Therapeutics, Inc., priority 2023, published 2026).
Converted amounts (≈) assume the structure as drawn.

Tested on: not listed separately
Experiment: Liver microsomes stability, human
Type: in vitro ADME
Conditions: 1 μM, Table 3, read-out: Metabolic Stability Half-life, human
Method: (§1) A 100 μM test compound solution and PC solution (verapamil) was prepared by adding 2 μL of 10 mM stock solution in DMSO to 198 μL of 50% acetonitrile/50% water.
(§2) Two separate experiments were performed as follows:
(§3) a) With Cofactors (NADPH): 25 μL of 10 mM NADPH was added to the incubations. The final concentrations of microsomes and NADPH were 0.5 mg/mL and 1 mM, respectively.
(§4) b) Without Cofactors (NADPH): 25 μL of 100 mM Phosphate buffer was added to the incubations. The final concentration of microsomes was 0.5 mg/mL. The mixture was pre-warmed at 37° C. for 10 minutes.
(§5) The reaction was started with the addition of 2.5 μL of 100 µM control compound or test compound solutions. Verapamil was used as positive control in this study. The final concentration of test compound or control compound was 1 μM. The incubation solution was incubated in a water bath at 37° C.
(§6) Aliquots of 30 μL were taken from the reaction solution at 0.5, 15, 30, 45 and 60 minutes. The reaction was stopped by the addition of 5 volumes of cold acetonitrile with IS (100 nM alprazolam, 200 nM caffeine and 100 nM tolbutamide).
(§7) Samples were then centrifuged at 3,220 g for 40 minutes. An aliquot of 100 μL of the supernatant was mixed with 100 μL of ultra-pure H2O and then used for LC-MS/MS analysis.
(§8) Single dose PK parameters were also determined for Compound 143, a deuterated derivative of Compound 1, according to the methods described herein. […] Metabolic stability was assessed by measuring the half-life of the test compounds in human and mouse liver microsomes.

| SMILES | half-life at 1 µM |
| --- | --- |
| Cc1ncc(S(=O)(=O)Nc2ccc(C)c3c(C#N)c[nH]c23)o1 [Compound 2, N-(3-cyano-4-methyl-1H-indol-7-yl)-2-methyl-oxazole-5-sulfonamide] | > 3.85 h |
| Cc1ccc(NS(=O)(=O)c2ccn3ccnc3c2)c2[nH]cc(C#N)c12 [Compound 39] | 1.16 h |
| Cc1ncc(S(=O)(=O)Nc2ccc(C)c3c(Cl)c[nH]c23)s1 [Compound 20, N-(3-chloro-4-methyl-1H-indol-7-yl)-2-methyl-thiazole-5-sulfonamide] | 0.396 h |
| Cc1cc(S(=O)(=O)Nc2ccc(C)c3c(C#N)c[nH]c23)sn1 [Compound 57] | 0.557 h |

Target: T1, MDR1 (Homo sapiens, UniProt P08183)
T1 construct: expressed in transfected cells; host or cells: MDCK-MDR1 cells (MDCK host)
T1 sequence (P08183 whole entry): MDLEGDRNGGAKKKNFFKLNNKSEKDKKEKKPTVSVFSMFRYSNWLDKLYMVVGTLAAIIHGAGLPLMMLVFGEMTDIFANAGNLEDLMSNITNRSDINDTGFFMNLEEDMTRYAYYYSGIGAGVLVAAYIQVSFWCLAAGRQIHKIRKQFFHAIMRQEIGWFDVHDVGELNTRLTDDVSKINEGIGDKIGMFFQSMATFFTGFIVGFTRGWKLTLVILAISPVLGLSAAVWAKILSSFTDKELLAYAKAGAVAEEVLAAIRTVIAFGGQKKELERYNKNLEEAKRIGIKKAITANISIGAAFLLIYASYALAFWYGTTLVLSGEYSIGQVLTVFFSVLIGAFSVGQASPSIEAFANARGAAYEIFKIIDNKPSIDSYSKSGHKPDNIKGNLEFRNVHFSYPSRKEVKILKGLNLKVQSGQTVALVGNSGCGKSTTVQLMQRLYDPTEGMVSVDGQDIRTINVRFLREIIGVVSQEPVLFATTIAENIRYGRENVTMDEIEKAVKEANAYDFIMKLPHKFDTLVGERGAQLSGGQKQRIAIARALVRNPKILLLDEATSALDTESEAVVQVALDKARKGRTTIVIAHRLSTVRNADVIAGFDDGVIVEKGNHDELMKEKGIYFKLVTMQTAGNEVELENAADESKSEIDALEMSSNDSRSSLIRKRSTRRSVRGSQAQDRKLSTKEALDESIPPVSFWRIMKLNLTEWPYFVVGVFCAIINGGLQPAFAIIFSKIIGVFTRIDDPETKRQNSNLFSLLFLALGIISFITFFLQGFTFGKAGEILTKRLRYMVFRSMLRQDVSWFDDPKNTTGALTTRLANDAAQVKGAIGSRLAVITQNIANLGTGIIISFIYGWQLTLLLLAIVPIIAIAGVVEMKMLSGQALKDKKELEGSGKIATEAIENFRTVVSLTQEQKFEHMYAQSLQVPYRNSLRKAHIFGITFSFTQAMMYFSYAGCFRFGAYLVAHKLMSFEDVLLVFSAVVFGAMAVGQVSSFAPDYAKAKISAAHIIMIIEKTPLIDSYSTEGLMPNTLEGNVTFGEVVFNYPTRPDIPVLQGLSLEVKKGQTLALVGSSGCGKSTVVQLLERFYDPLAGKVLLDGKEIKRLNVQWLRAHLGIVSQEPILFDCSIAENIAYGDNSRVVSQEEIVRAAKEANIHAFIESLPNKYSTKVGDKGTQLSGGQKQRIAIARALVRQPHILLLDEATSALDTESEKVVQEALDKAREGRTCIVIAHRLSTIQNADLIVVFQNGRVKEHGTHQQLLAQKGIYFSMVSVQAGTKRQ
Experiment: MDCK-MDR1 permeability / efflux assay
Type: in vitro ADME, canine
Conditions: dog, MDCK-MDR1, pH 7.4, MDCK-MDR1, 1 μM, 2 hours; Table 3; read-out: MDCK-MDR1 Efflux ratio
Method: To prepare transport buffer (HBSS with 10 mM HEPES, pH 7.4), 2.383 g of HEPES and 0.35 g sodium hydrogen carbonate was accurately weighed and added into 900 mL of pure water, then sonicated to dissolve the content. Into the solution was transferred 100 mL of 10×HBSS, and the solution was placed on a stirrer. The pH of the solution was slowly adjusted with sodium hydroxide to 7.4, followed with filtering.
MDCK-MDR1 plate(s) were removed from the incubator. The monolayer was washed the monolayer twice with pre-warmed HBSS (10 mM HEPES, pH 7.4). Then the plate(s) were incubated at 37° C. for 30 minutes.
Propranolol was used as the high permeability marker. Digoxin was used as the substrate of […] (MDR1). Stock solutions of test compound(s) and digoxin in DMSO at 0.2 mM were prepared and diluted with HBSS (10 mM HEPES, pH 7.4) to get 1 μM working solutions. Stock solutions of propranolol in DMSO at 1 mM was prepared and diluted with HBSS (10 mM HEPES, pH 7.4) to get 5 μM working solutions.
To determine the rate of drug transport in the apical to basolateral direction, 125 μL of the working solution was added to the Transwell insert (apical compartment), and a 50 μL sample was immediately transferred from the apical compartment to 200 μL quenching solvents (acetonitrile with 100 nM alprazolam, 200 nM caffeine, 200 nM labetalol and 100 nM tolbutamide) in a new 96-well plate as the initial donor sample (A-B). The plate was shaken at 1000 rpm for 10 minutes. The wells in the receiver plate (basolateral compartment) were filled with 235 μL of transport buffer. All incubations were performed in duplicate.
To determine the rate of drug transport in the basolateral to apical direction, 285 μL of the 1 μM working solution was added to the receiver plate wells (basolateral compartment), and a 50 μL sample was immediately transferred from the basolateral compartment to 200 μL quenching solvents (acetonitrile with 100 nM alprazolam, 200 nM caffeine, 200 nM labetalol and 100 nM tolbutamide) in a new 96-well plate as the initial donor sample (B-A). Shake the plate at 1000 rpm 10 minutes. The Transwell insert (apical compartment) was filled with 75 μL of transport buffer. The apical to basolateral direction and the basolateral to apical direction were done at the same time.
The Transwell insert plate was inserted into the basolateral plate, transferred into the incubator and incubated at 37° C. for 2 hours.
At the end of the incubation, 50 μL samples from donor sides (apical compartment for Ap→Bl flux, and basolateral compartment for Bl→Ap flux) and receiver sides (basolateral compartment for Ap→Bl flux, and apical compartment for Bl→Ap flux) were transferred to wells of a new 96-well plate, followed by the addition of 4 volume of quenching solvents (acetonitrile with 100 nM alprazolam, 200 nM caffeine, 200 nM labetalol and 100 nM tolbutamide). Samples were Vortexed for 10 minutes and then centrifuged at 3,220 g for 40 minutes. An aliquot of 100 μL of the supernatant was mixed with an appropriate volume of ultra-pure water before LC-MS/MS analysis.
To determine the Lucifer yellow leakage after 2-hour transport period, Lucifer yellow working solutions were prepared by diluting the stock solution with HBSS (10 mM HEPES, pH 7.4) to reach the final concentration of 100 μM. To the apical compartment, 100 μL of the Lucifer yellow solution were added. The plate(s) were incubated at 37° C. for 30 minutes and 80 μL was directly removed from the apical and basolateral wells and transferred to new 96 wells plates. Lucifer yellow fluorescence (to monitor monolayer integrity) was measured in a fluorescence plate reader at 485 nm excitation and 530 nm emission.

| SMILES | efflux ratio at 2 h, 1 µM |
| --- | --- |
| Cc1ncc(S(=O)(=O)Nc2ccc(C)c3c(C#N)c[nH]c23)o1 [Compound 2, N-(3-cyano-4-methyl-1H-indol-7-yl)-2-methyl-oxazole-5-sulfonamide] | 6.74 |
| Cc1ccc(NS(=O)(=O)c2ccn3ccnc3c2)c2[nH]cc(C#N)c12 [Compound 39] | 50.1 |
| Cc1ncc(S(=O)(=O)Nc2ccc(C)c3c(Cl)c[nH]c23)s1 [Compound 20, N-(3-chloro-4-methyl-1H-indol-7-yl)-2-methyl-thiazole-5-sulfonamide] | 1.11 |
| Cc1cc(S(=O)(=O)Nc2ccc(C)c3c(C#N)c[nH]c23)sn1 [Compound 57] | 4.84 |

Tested on: not listed separately
Experiment: Liver microsomes stability, mouse
Type: in vitro ADME
Conditions: 1 μM, Table 3, read-out: Metabolic Stability Half-life, mouse
Method: as §1, §2, §3, §4, §5, §6, §7, §8

| SMILES | half-life at 1 µM |
| --- | --- |
| Cc1ncc(S(=O)(=O)Nc2ccc(C)c3c(C#N)c[nH]c23)o1 [Compound 2, N-(3-cyano-4-methyl-1H-indol-7-yl)-2-methyl-oxazole-5-sulfonamide] | 2.68 h |
| Cc1ccc(NS(=O)(=O)c2ccn3ccnc3c2)c2[nH]cc(C#N)c12 [Compound 39] | 0.566 h |
| Cc1cc(S(=O)(=O)Nc2ccc(C)c3c(C#N)c[nH]c23)sn1 [Compound 57] | 1.02 h |

Tested on: HCT116 colorectal cells
Experiment: Cell viability assay (CellTiter-Glo) in HCT116 cells
Type: cell-based
Conditions: Homo sapiens, HCT-116, 72h, CellTiter-Glo, read-out: HCT116 Assay (IC50)
Method: HCT116 colorectal cells were used in these experiments. HCT116 cells were obtained from ATCC. The CellTiter-Glo® Luminescent Cell Viability Assay Reagent was obtained from Promega.
Into a 96-well plate, 3000 HCT116 cells were seeded with 100 μL of media (McCoy's 5A Medium supplemented with 10% FBS, 100 units penicillin, and 100 μg streptomycin per mL) 24h before the experiment. For compound treatment, the liquid handling system-Pico machine was used to prepare all the compounds. Each master plate contained serial dilution of 2 compounds, including the control compound E7820. 10 mM compound stock was added to each well of the assay plate to give final concentrations of […], 0.003, 0.002 and 0 μM. Each concentration was tested in triplicate. After 72h, cell viability was determined using CellTiter-Glo Luminescent Cell Viability Assay Reagent following the manufacturer's recommended protocol. Briefly, equilibrate the assay plate and its contents at room temperature for approximately 30 minutes. 100 μL of CellTiter-Glo reagent was added to each well of the assay plate and the contents were mixed for 2 minutes at 500 rpm on an orbital shaker to induce cell lysis (Fisherbrand). The plate was incubated at room temperature for 10 minutes to stabilize luminescent signal. Then the plate was immediately placed in a plate reader (PerkinElmer Multimode Plate Reader Envision2105) and the luminescence signal (0.5 second per well integration time) was determined. IC50 values were calculated using Graphpad Prism 9 software.
Cell viability assays were performed to compare the potency of Compound 1 to Compound 143.

| SMILES | IC50 |
| --- | --- |
| Cc1ncc(S(=O)(=O)Nc2ccc(C)c3c(C#N)c[nH]c23)o1 [Compound 2, N-(3-cyano-4-methyl-1H-indol-7-yl)-2-methyl-oxazole-5-sulfonamide] | < 0.5 µM |
| Cc1ncc(S(=O)(=O)Nc2ccc(C)c3c(Cl)c[nH]c23)s1 [Compound 20, N-(3-chloro-4-methyl-1H-indol-7-yl)-2-methyl-thiazole-5-sulfonamide] | < 0.5 µM |
| Cc1cc(S(=O)(=O)Nc2ccc(C)c3c(C#N)c[nH]c23)sn1 [Compound 57] | < 0.5 µM |

Tested on: not listed separately
Experiment: General solubility protocol (PBS, pH 7.4)
Type: physicochemical
Conditions: PBS buffer, aqueous buffer, kinetic from dmso stock, pH 7.4, 25° C.
Method: Into a 96-well rack, 15 μL of stock solution (10 mM) of each sample was placed. Into each vial of a cap-less Solubility Sample plate 485 μL of buffer was added. The assay was performed in duplicate. To each vial one stir stick was added and each vial was sealed using a molded PTFE/Silicone plug. The Solubility Sample plate was then transferred to an Eppendorf Thermomixer Comfort plate shaker and shake at 25° C. at 1100 RPM for 2 hours. […] Using a vacuum manifold, all the samples were filtered. An aliquot of 5 μL was taken from the filtrate and 5 μL blank DMSO followed by addition of 490 μL of a mixture of H2O and acetonitrile containing an internal standard (1:1). The dilution factor may be changed according to the solubility value and the LC/MS signal response.

| SMILES | solubility at 2 h |
| --- | --- |
| Cc1ncc(S(=O)(=O)Nc2ccc(C)c3c(C#N)c[nH]c23)o1 [Compound 2, N-(3-cyano-4-methyl-1H-indol-7-yl)-2-methyl-oxazole-5-sulfonamide] | 292 µM (≈ 92.4 µg/mL) |
| Cc1ccc(NS(=O)(=O)c2ccn3ccnc3c2)c2[nH]cc(C#N)c12 [Compound 39] | 1.24 µM (≈ 0.436 µg/mL) |
| Cc1ncc(S(=O)(=O)Nc2ccc(C)c3c(Cl)c[nH]c23)s1 [Compound 20, N-(3-chloro-4-methyl-1H-indol-7-yl)-2-methyl-thiazole-5-sulfonamide] | 1.91 µM (≈ 0.653 µg/mL) |
| Cc1cc(S(=O)(=O)Nc2ccc(C)c3c(C#N)c[nH]c23)sn1 [Compound 57] | 294 µM (≈ 97.6 µg/mL) |
